Measured values taken from EP0294814B1, “Treating agents for renal diseases” (DAIICHI PHARMACEUTICAL CO., LTD., priority 1987, dated 1988).
Where a name gives a salt, the structure may show the parent alone.

Experiments:
thromboxane A₂ = conditions: known from prior art; cited from earlier work
[1] = system: diabetic nephropathy or glomerulonephritis; conditions: applied to diabetic nephropathy or glomerulonephritis, literature reports; cited from earlier work
[2] = Diabetic nephropathy model: influence on body weight of SHR and diabetic SHR; type: in vivo, rat; conditions: SHR
Protocol: (§1) 5-Week old spontaneous hypertensive male rats (SHR) and normotensive Wister Kyoto rats (WKY), both available from Nippon Charles River, were used. Streptozotocin (STZ) was dissolved in a 0.1M citrate buffer solution (pH 4.5) and injected to the tail vein of the rat at a dose level of 50 mg/kg to prepare a diabetic rat. For control, the rat received 1 ml/kg of the citrate buffer solution alone through administration to the tail vein. After one week from the STZ administration, blood was taken from the tail vein of the unanesthetized rat, and the blood sugar level was measured. Those rats having a blood sugar level of […] or higher were used as diabetic rats. […]

[3] = system: Ischemic Insufficient Kidney; test: Ischemic renal insufficiency model: renal function; type: in vivo, SD rat; conditions: 10 mg/kg intraperitoneally 30 minutes before ligature of renal arteries; 24 hours after reperfusion; mean±S.E.
Protocol: An abdominal incision was made in a SD vale rat weighing 300 to 450 g under pentobarbital anesthesia, and renal arteries of both sides were ligated with a clamp for 40 minutes and then reopened to prepare an animal suffering from isochemic renal insufficiency.
The hydrochloride hemihydrate of Compound A was dissolved in physiological saline, and administered intraperitoneally to the test animal at a dose level of 10 mg/2 ml/kg 30 minutes before the ligature of the renal arteries. The control group received the same volume of physiological saline.
After the blood flow of the renal arteries was restored, the animal was fed on foods and tap water ad lib. for 24 hours. The clearance values of inulin and p-aminohippuric acid were determined in the same manner as described in Example 2.

Hydronephrotic Kidney = test: Hydronephrosis model: clearance test; type: in vivo, SD male rat; conditions: Normal Kidney, 0.3 µg/min infused into renal artery, mean±S.E. of 5 cases
Protocol: (§2) An abdominal incision was made in a SD male rat having a body weight of from 300 to 400 g under light anesthesia with diethyl ether. After the left urinary tract was ligated in the middle between the bladder and the kidney, the incision was closed, and the animal was fed on foods and tap water, ad lib.
(§3) After 18 hours from the ligation of the urinary tract, a cannula was inserted in the urinary tracts on both sides, the right femoral artery and the right femoral vein for collection of blood samples, infusion of inulin and infusion of p-aminohippuric acid, respectively, under Inactin anesthesia. Physiological saline containing 20 mg/ml of inulin and physiological saline containing 4 mg/ml of p-aminohippuric acid were continuously infused each at a rate of 0.4 ml/min in a 1/20 amount of the body weight. On confirming that the urinary output became constant after 50 minutes from the start of the infusion, urine was collected separately from the right and left urinary tracts at intervals of 20 minutes, and blood samples were obtained at the middle between urine collections. Immediately preceding the start of urine collection, infusion of physiological saline at a rate of 25 µl/min into the left femoral artery was instituted and continued for 40 minutes. Thereafter, a solution of a hydrochloride hemihydrate of Compound A in physiological saline was continuously infused at a dose level of 0.3 µg/25 µl/min/rat for 40 minutes into the inlet of the renal artery through a retrograde cannula inserted from the left femoral artery. Inulin levels in urine and in blood were determined according to the anthrone method (H.H. Hilger et al., Pflügers Arch Physiol., Vol. 267, 218 (1958)), and p-aminohippuric acid levels in urine and blood were determined according to the method of Smith et al. (H.W. Smith et al., J. Clin. Invest., Vol. 24, 388 (1945)), to calculate clearance values of inulin and p-aminohippuric acid.

[4] = Hydronephrosis model: clearance test; type: in vivo, SD male rat; conditions: Normal Kidney, 0.3 µg/min infused into renal artery, mean±S.E. of 5 cases
Protocol: as §2, §3

Diabetic SHR = test: Diabetic nephropathy model: excretion of protein, γ-GTP and NAβG in the urine; type: in vivo, rat; conditions: after 4 months of administration
Protocol: as §1
After 4 months from the start of the administration of Compound A, urine was collected for 24 hours, and the protein, γ-GTP activity and NAβG activity in the urine were determined by the method of Kinsbury et al., the method of using a commercially available kit (γ-GTP Test Pack, produced by Sankyo Co., Ltd.), and the method of Hasebe et al., respectively.

rats = test: Acute toxicity in rats; type: in vivo
From the text: Acute toxicities of a hydrochloride hemihydrate of Compound A in rats through oral administration or intravenous injection were as follows.

Structure (SMILES): Cl.O=C(O)/C=C/c1ccc(Cn2ccnc2)cc1 [(E)-3-(4-(1-Imidazolylmethyl)phenyl)propenoic acid hydrochloride, reference compound]
- inhibition of the synthesis of thromboxane A₂ (thromboxane A₂): inhibit the synthesis of thromboxane A₂
- effect in treatment of renal diseases [1]: not satisfactory

Structure (SMILES): O=C(O)c1ccc2c(c1)CCC(Cn1ccnc1)C2 (centres unmarked) [Compound A, 6-(1-imidazolylmethyl)-5,6,7,8-tetrahydronaphthalene-2-carboxylic acid]
- Body Weight (Mean±S.E.) ([2]; 1 mg/kg/day, 1 Month after start of admin.): 280.3 ± 4.0 g
- Body Weight (Mean±S.E.) ([2]; 1 mg/kg/day, 5 Months after start of admin.): 392.4 ± 5.6 g
- Body Weight (Mean±S.E.) ([2]; 10 mg/kg/day, 1 Month after start of admin.): 278.7 ± 5.3 g
- Body Weight (Mean±S.E.) ([2]; 10 mg/kg/day, 5 Months after start of admin.): 385.3 ± 7.5 g
- Inulin Clearance [3]: 0.32± 0.05 ml/min/kidney
- Urinary Output [3]: 11.30± 1.53 µl/min/kidney
- p-Aminohippuric Acid Clearance [3]: 1.01±0.17 ml/min/kidney
- inhibition of the synthesis of thromboxane A₂ (thromboxane A₂): inhibit the synthesis of thromboxane A₂
- Urinary Output (Hydronephrotic Kidney): 7.47± 0.83 µℓ/min/ kidney
- p-Aminohippuric Acid Clearance (Hydronephrotic Kidney): 5.95±0.50 ml/min/kidney
- Inulin Clearance [4]: 1.77± 0.13 ml/min/ kidney
- Excretion in Urine for 24 h NAβG (Diabetic SHR; 1 mg/kg/day oral): 0.536± 0.086 mg/100 g B.W.
- Excretion in Urine for 24 h Protein (Diabetic SHR; 1 mg/kg/day oral): 6.82± 1.56 mg/100 g B.W.
- Excretion in Urine for 24 h γ-GTP (Diabetic SHR; 1 mg/kg/day oral): 2.83± 0.32 U/100 g B.W.
- Excretion in Urine for 24 h NAβG (Diabetic SHR; 10 mg/kg/day oral): 0.412± 0.056 mg/100 g B.W.
- Excretion in Urine for 24 h Protein (Diabetic SHR; 10 mg/kg/day oral): 4.00± 0.59 mg/100 g B.W.
- Excretion in Urine for 24 h γ-GTP (Diabetic SHR; 10 mg/kg/day oral): 2.45± 0.22 U/100 g B.W.

Structure (SMILES): O=C(O)c1ccc2c(c1)CCC(Cn1ccnc1)C2 (centres unmarked) [hydrochloride hemihydrate of Compound A, 6-(1-imidazolylmethyl)-5,6,7,8-tetrahydronaphthalene-2-carboxylic acid]
- LD₅₀ (rats; Female rats, i.v.): 783 (i.v.) mg
- LD₅₀ (rats; Female rats, p.o.): 1994 (p.o.) mg
- LD₅₀ (rats; Male rats, i.v.): 807 mg
- LD₅₀ (rats; Male rats, p.o.): 2438 mg
